For one data set, the target named is T1, GC receptor (Homo sapiens, UniProt P04150).
T1 sequence (P04150 1-777): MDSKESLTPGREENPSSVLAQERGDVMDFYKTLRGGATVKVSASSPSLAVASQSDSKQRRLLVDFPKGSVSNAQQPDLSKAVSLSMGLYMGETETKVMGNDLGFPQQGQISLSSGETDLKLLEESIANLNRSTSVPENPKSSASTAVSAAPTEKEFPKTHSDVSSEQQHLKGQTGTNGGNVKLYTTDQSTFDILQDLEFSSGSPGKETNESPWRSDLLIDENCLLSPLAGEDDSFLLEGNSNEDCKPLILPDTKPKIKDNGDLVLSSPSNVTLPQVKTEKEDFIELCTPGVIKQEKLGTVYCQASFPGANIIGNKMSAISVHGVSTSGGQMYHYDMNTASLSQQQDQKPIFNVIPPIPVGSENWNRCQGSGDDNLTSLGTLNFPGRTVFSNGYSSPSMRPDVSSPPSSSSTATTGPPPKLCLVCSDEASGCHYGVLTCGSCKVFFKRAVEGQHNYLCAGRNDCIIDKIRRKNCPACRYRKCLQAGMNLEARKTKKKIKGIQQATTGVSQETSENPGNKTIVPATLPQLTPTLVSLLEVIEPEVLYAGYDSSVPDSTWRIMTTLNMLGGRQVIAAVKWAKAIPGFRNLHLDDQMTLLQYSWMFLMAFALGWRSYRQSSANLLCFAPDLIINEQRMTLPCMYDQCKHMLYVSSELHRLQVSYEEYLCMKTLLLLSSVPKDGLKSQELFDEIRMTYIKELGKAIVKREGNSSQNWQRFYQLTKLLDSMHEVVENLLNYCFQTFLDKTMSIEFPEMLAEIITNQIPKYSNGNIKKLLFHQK
To be noted: GC receptor-binding (Tajika 2011b); cited from earlier work.

The nature of data set [1]: Impact of gamma irradiation (46 kGy) on difluprednate assay of implant formulations. The class given is physicochemical. The procedure: Terminal moist heat sterilization is not a viable method due to the fact that ENV905 is a solid dosage form designed to disintegrate in aqueous environments. Therefore, studies to evaluate gamma irradiation were conducted on early ENV905 formulations to determine if ionizing radiation was a viable option for a terminally sterilized drug product. ENV905 implants were exposed to gamma irradiation with a dose of 46 kGy per ISO 11137-2:2012 (Sterilization of Health Care Products—Radiation—Part 2: Establishing the Sterilization Dose). The implant formulations used for these studies consisted of a blend of difluprednate and PEGs.
Implants were individually packaged in HPLC vials with air headspace and polytetrafluoroethylene (PTFE)-lined screw caps. Ten individual implants (n=10) were tested for difluprednate assay.

Another data set relates to Ames test. To be noted: cited from earlier work.
Another data set has as its system CHL/IU. The settings on record: cited from earlier work.
The next data set concerns mice. To be noted: cited from earlier work.
Another data set deals with male and female rats. The settings on record: subcutaneous up to 10 μg/kg/day prior to and during mating; cited from earlier work.
For another data set, the system named is rodents and non-rodents. To be noted: consistent between species; cited from earlier work.
For a further data set, the system named is rabbits. To be noted: subcutaneous during organogenesis, cited from earlier work.

We go through two compounds from patent publication US20230190643A1, “IMPLANT FOR TREATMENT OF AN OCULAR CONDITION” (Allergan, Inc., priority 2015, published 2023).

Consider `CCCC(=O)O[C@]1(C(=O)CO)CC[C@H]2[C@@H]3C[C@H](F)C4=CC(=O)C=C[C@]4(C)[C@@]3(F)[C@@H](O)C[C@@]21C` [Desacetyl Difluprednate (DFB), 6α,9-difluoroprednisolone 17-butyrate], for which the Ki – broadly, a measure of affinity in units of concentration, obtained from inhibition or displacement – at GC receptor was 0.061 nM.

With `CCCC(=O)O[C@]1(C(=O)COC(C)=O)CC[C@H]2[C@@H]3C[C@H](F)C4=CC(=O)C=C[C@]4(C)[C@@]3(F)[C@@H](O)C[C@@]21C` [Difluprednate (DFBA), Difluprednate], in data set [1] (Radiation Dose 46 kGy), the Degradation stood at 0.85 % Area and the “Difluprednate Assay” value is on record as 97.13 % Area. In addition, the “Difluprednate Assay” value in data set [1] (Radiation Dose None) was 97.98 % Area. Further, at GC receptor, the Ki was 0.78 nM. In addition, the “genotoxicity in vitro in the Ames test” value in the data set with Ames test is “not genotoxic”. Also, the “genotoxicity in cultured mammalian cells CHL/IU” value in the data set on CHL/IU is on record as “not genotoxic”. In addition, the “in vivo micronucleus test” value in the data set with mice is recorded as “negative”. In addition, in the data set with male and female rats, the fertility result is recorded as “did not impair fertility in either gender”. The “no-observed-effect-level (NOEL), subchronic and chronic toxicity tests” value in the data set on rodents and non-rodents is 1 to 1.25 µg/kg/day. The embryotoxicity and teratogenicity result with rabbits (1-10 μg/kg/day) was “embryotoxic (decrease in embryonic body weight and a delay in embryonic ossification) and teratogenic (cleft palate and skeletal anomalies)”. Moreover, in the data set with rabbits, the “NOEL for embryotoxic and teratogenic effects” value is 1 µg/kg/day; the teratogenic dose was 10 µg/kg/day.
